Tests used:
corn = experiment: Test B pre/postemergence corn; type: in vivo, Zea mays
Outline: (§1)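 Test chemicals in a non-phytotoxic solvent mixture with surfactant were sprayed preemergence onto planted seeds and postemergence onto plants 2 to 18 cm tall (1- to 4-leaf stage). After twelve to sixteen days in a greenhouse, injury was visually rated against untreated controls from 0 (no effect) to 10 (complete control).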

rape = experiment: Test B pre/postemergence rape; type: in vivo, Brassica napus
Outline: as §1

sugar beet = experiment: Test B pre/postemergence sugar beet; type: in vivo, Beta vulgaris
Outline: as §1

pitted morningglory = experiment: Test D pitted morningglory; type: in vivo, Ipomoea lacunosa; conditions: Rate 64 g/ha, Preemergence; 0 to 100 scale, 0 no injury, 100 complete control
Outline: (§2)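 Each weed species is planted in its own pot or compartment; preemergence doses go on the sandy loam surface within a day. The formulation is a surfactant-containing, non-phytotoxic solvent blend. Ratings come from visual comparison with untreated controls 14 to 21 days later, where 100 means complete control.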

tall mallow = experiment: Test D tall mallow; type: in vivo, Malva sylvestris; conditions: Rate 64 g/ha, Preemergence; 0 to 100 scale, 0 no injury, 100 complete control
Outline: as §2

winter wheat [1] = experiment: Test E winter wheat; type: in vivo, Triticum aestivum; conditions: Postemergence; for Plant response rating, Wheat (winter): 0 to 100 scale
Outline: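 Compound formulated with surfactant in a non-phytotoxic solvent (postemergence: young 1- to 4-leaf plants); held in greenhouse approx. 21–28 days; visual assessment against untreated plants.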

blackgrass = experiment: Test E blackgrass; type: in vivo, Alopecurus myosuroides; conditions: Preemergence
green foxtail = experiment: Test E green foxtail; type: in vivo, Setaria viridis; conditions: Preemergence
Italian ryegrass = experiment: Test E Italian ryegrass; type: in vivo, Lolium multiflorum; conditions: Preemergence
winter wheat [2] = experiment: Test E winter wheat; type: in vivo, Triticum aestivum; conditions: Preemergence
wild oat = experiment: Test E wild oat; type: in vivo, Avena fatua; conditions: Preemergence
winter barley = experiment: Test E winter barley; type: in vivo, Hordeum vulgare; conditions: Preemergence
[3] = Postemergence, Rate 125 g/ha, scale of 0 to 10 where 0 is no effect and 10 is complete control
[4] = Preemergence, Rate 62 g/ha, scale 0 to 10 (0 no effect, 10 complete control)
[5] = Preemergence, Rate 125 g/ha, 0 is no effect, 10 is complete control
[6] = Preemergence, Rate 250 g/ha, scale 0 to 10, 0 is no effect, 10 is complete control
[7] = Preemergence, Rate 500 g/ha, scale 0 to 10 (0 no effect, 10 complete control)
[8] = Rate 62 g/ha, Postemergence, scale of 0 to 10 where 0 is no effect and 10 is complete control
[9] = Rate 250 g/ha, Postemergence, scale 0 to 10, 0 is no effect, 10 is complete control
[10] = Rate 500 g/ha, Postemergence, scale 0 to 10
[11] = Rate 125 g/ha, 0 to 100 scale (0 no effect, 100 complete control)
[12] = Rate 500 g/ha, 0 to 100 scale where 0 is no effect and 100 is complete control

Cc1ccc(N(C(=O)n2oc(=O)n(C(C)C)c2=O)C(C)C)cc1 [Compound 132]
Corn plant response rating (corn; [3]): 0 | Corn plant response rating (corn; [4]): 0 | Corn plant response rating (0 to 10 scale) (corn; [5]): 0 | Corn plant response rating (corn; [6]): 7 | Corn plant response rating (corn; [7]): 8 | Corn plant response rating (corn; [8]): 0 | Plant response rating, Corn (corn; [9]): 4 | Corn plant response rating (corn; [10]): 6 | Rape plant response rating (rape; [3]): 0 | Rape plant response rating (rape; [4]): 0 | Rape plant response rating (0 to 10 scale) (rape; [5]): 0 | Rape plant response rating (rape; [6]): 0 | Rape plant response rating (rape; [7]): 8 | Rape plant response rating (rape; [8]): 0 | Plant response rating, Rape (rape; [9]): 0 | Rape plant response rating (rape; [10]): 0 | Sugarbeets plant response rating (sugar beet; [3]): 0 | Sugarbeets plant response rating (sugar beet; [4]): 2 | Sugarbeets plant response rating (0 to 10 scale) (sugar beet; [5]): 5 | Sugarbeets plant response rating (sugar beet; [6]): 6 | Sugarbeets plant response rating (sugar beet; [7]): 8 | Sugarbeets plant response rating (sugar beet; [8]): 0 | Plant response rating, Sugarbeets (sugar beet; [9]): 0 | Sugarbeets plant response rating (sugar beet; [10]): 2 | Plant response rating, P. morninglory (pitted morningglory): 0 | Tall Mallow plant response rating (tall mallow): 40 | Plant response rating, Wheat (winter) (winter wheat [1]; Rate 125 g/ha): 20 | Plant response rating, Wheat (winter) (winter wheat [1]; Rate 500 g/ha, 0 no effect, 100 complete control): 80 | Wheat (winter) plant response rating (winter wheat [1]; Rate 250 g/ha, 0 to 100 scale where 0 is no effect and 100 is complete control): 50 | Plant response rating, Blackgrass (blackgrass; [11]): 20 | Blackgrass plant response rating (0 to 100 scale) (blackgrass; Rate 250 g/ha): 60 | Plant response rating, Blackgrass (blackgrass; [12]): 75 | Plant response rating, Green foxtail (green foxtail; [11]): 60 | Green foxtail plant response rating (0 to 100 scale) (green foxtail; Rate 250 g/ha): 98 | Plant response rating, Green foxtail (green foxtail; [12]): 100 | Plant response rating, I. Ryegrass (Italian ryegrass; [11]): 20 | I. Ryegrass plant response rating (0 to 100 scale) (Italian ryegrass; Rate 250 g/ha): 100 | Plant response rating, I. Ryegrass (Italian ryegrass; [12]): 100 | Plant response rating, Wheat (winter) (winter wheat [2]; [11]): 30 | Wheat (winter) plant response rating (0 to 100 scale) (winter wheat [2]; Rate 250 g/ha): 40 | Plant response rating, Wheat (winter) (winter wheat [2]; [12]): 60 | Plant response rating, Wild oat (wild oat; [11]): 35 | Wild oat plant response rating (0 to 100 scale) (wild oat; Rate 250 g/ha): 50 | Plant response rating, Wild oat (wild oat; [12]): 65 | Plant response rating, Barley (winter) (winter barley; [11]): 10 | Barley (winter) plant response rating (0 to 100 scale) (winter barley; Rate 250 g/ha): 50 | Plant response rating, Barley (winter) (winter barley; [12]): 60
